Experimental data taken from patent US10138254B2, “Bicyclic compounds as pest control agents” (BAYER CROPSCIENCE AKTIENGESELLSCHAFT, priority 2014, dated 2018).
Read-outs that look alike come from different tables or passages of the source.

Columns and labels:
[1] = log P by HPLC on reversed-phase (C18) columns, OECD Guideline 117; assay type: physicochemical; details: for chromatographic logP: reversed-phase (C18) HPLC column
Procedure: The log P values were determined in accordance with OECD Guideline 117 (EC Directive 92/69/EEC) by HPLC (high-performance liquid chromatography) using reversed-phase (RP) columns (C18), by the following methods: [a] The LC-MS determination in the acidic range is carried out at pH 2.7 with 0.1% aqueous formic acid and acetonitrile (contains 0.1% formic acid) as eluents; linear gradient from 10% acetonitrile to 95% acetonitrile. [b] LC-MS determination in the neutral range is effected at pH 7.8 with 0.001 molar aqueous ammonium hydrogencarbonate solution and acetonitrile as eluents; linear gradient from 10% acetonitrile to 95% acetonitrile. Calibration is carried out using unbranched alkan-2-ones (having 3 to 16 carbon atoms) with known log P values (log P values determined on the basis of the retention times by linear interpolation between two successive alkanones).

[2] = test system: green peach aphid (Myzus persicae); assay: Myzus persicae spray test (Chinese cabbage leaf discs); assay type: in vivo; details: application rate 500 g/ha, after 6 days, 100% = all aphids killed; for pest or weed control at 500 g/ha: Myzus persicae, foliar, 144 h, read-out: efficacy
Procedure: Myzus persicae—Spray Test Solvent: 78 parts by weight of acetone • • 1.5 parts by weight of dimethylformamide Emulsifier: alkylaryl polyglycol ether To produce a suitable active ingredient formulation, 1 part by weight of active ingredient is dissolved with the specified parts by weight of solvent and made up with water containing an emulsifier concentration of 1000 ppm until the desired concentration is attained. To produce further test concentrations, the formulation is diluted with emulsifier-containing water. Discs of Chinese cabbage leaves (Brassica pekinensis) infested by all stages of the green peach aphid (Myzus persicae) are sprayed with an active ingredient formulation of the desired concentration. After 6 days, the efficacy in % is determined. 100% means that all the aphids have been killed; 0% means that no aphids have been killed.

[3] = test system: greenhouse red spider mite (Tetranychus urticae); assay: Tetranychus urticae spray test, OP-resistant (bean leaf discs); assay type: in vivo; details: application rate 500 g/ha, after 6 days, 100% = all spider mites killed
Procedure: Tetranychus urticae—Spray Test, OP-Resistant
Solvent: 78.0 parts by weight of acetone • • 1.5 parts by weight of dimethylformamide
Emulsifier: alkylaryl polyglycol ether
To produce a suitable active ingredient formulation, 1 part by weight of active ingredient is dissolved with the specified parts by weight of solvent and made up with water containing an emulsifier concentration of 1000 ppm until the desired concentration is attained. To produce further test concentrations, the formulation is diluted with emulsifier-containing water.
Discs of bean leaves (Phaseolus vulgaris) infested with all stages of the greenhouse red spider mite (Tetranychus urticae) are sprayed with an active ingredient formulation of the desired concentration.
After 6 days, the efficacy in % is determined. 100% means that all the spider mites have been killed; 0% means that no spider mites have been killed.

[4] = acidic range, pH 2.7, 0.1% aqueous formic acid and acetonitrile
[5] = neutral range, pH 7.8, 0.001 molar aqueous ammonium hydrogencarbonate and acetonitrile
[6] = acidic range, pH 2.7, 0.1% aqueous formic acid and acetonitrile, read-out: LogP[a]
[7] = neutral range, pH 7.8, 0.001 molar aqueous ammonium hydrogencarbonate and acetonitrile, read-out: logP[b]

SMILES | LogP[a] [1, 4] | logP[b] [1, 5] | chromatographic logP [1, 6] | chromatographic logP [1, 7] | pest or weed control at 500 g/ha [2] [%] | further results
CCSc1ccc(-c2cnc3nc(-c4cccnc4)sc3c2)cc1 [Example 11] | 3.34 | 3.37 | – | – | – | –
CC[S+]([O-])c1ccc(-c2cnc3nc(-c4cccnc4)sc3c2)cc1 (stereo not shown) [Example 12] | 1.58 | 1.86 | – | – | – | –
CC[S+]([O-])c1ccc(-c2cnc3nc(-c4ccc[n+]([O-])c4)sc3c2)cc1 (stereo not shown) [Example 13] | 1.85 | 1.85 | – | – | – | efficacy [2]: 90%
CC[S+]([O-])c1ccccc1-c1cnc2nc(-c3ccc[n+]([O-])c3)sc2c1 (stereo not shown) [Example 16, 6-[2-(Ethylsulphinyl)phenyl]-2-(1-oxidopyridin-3-yl)[1,3]thiazolo[4,5-b]pyridine] | – | – | 1.86 | 1.87 | 90 | –
Cc1ccc(-c2cnc3nc(-c4cccnc4)sc3c2)cc1SCC(F)(F)F [Example 17] | 3.74 | 3.68 | – | – | – | efficacy [2]: 90%
Cc1ccc(-c2cnc3nc(-c4cccnc4)sc3c2)cc1[S+]([O-])CC(F)(F)F (stereo not shown) [Example 18] | 2.4 | 2.34 | – | – | – | efficacy [2]: 90%
Cc1cc(C)c(-c2cnc3nc(-c4cccnc4)sc3c2)cc1SCC(F)(F)F [Example 19, 6-{2,4-Dimethyl-5-[(2,2,2-trifluoroethyl)sulphanyl]phenyl}-2-(pyridin-3-yl)[1,3]thiazolo[4,5-b]pyridine] | – | – | 3.97 | 3.95 | 100 | –
Cc1cc(C)c([S+]([O-])CC(F)(F)F)cc1-c1cnc2nc(-c3cccnc3)sc2c1 (stereo not shown) [Example 20, 6-{2,4-Dimethyl-5-[(2,2,2-trifluoroethyl)sulphinyl]phenyl}-2-(pyridin-3-yl)[1,3]thiazolo[4,5-b]pyridine] | – | – | 2.54 | 2.52 | 90 | –
Cc1cc(F)c(-c2cnc3nc(-c4cccnc4)sc3c2)cc1SCC(F)(F)F [Example 22, 6-{2-Fluoro-4-methyl-5-[(2,2,2-trifluoroethyl)sulphanyl]phenyl}-2-(pyridin-3-yl)[1,3]thiazolo[4,5-b]pyridine] | – | – | 3.83 | 3.78 | 100 | efficacy [3]: 90%
Cc1cc(F)c(-c2cnc3nc(-c4cccnc4)sc3c2)cc1[S+]([O-])CC(F)(F)F (stereo not shown) [Example 23, 6-{2-Fluoro-4-methyl-5-[(2,2,2-trifluoroethyl)sulphinyl]phenyl}-2-(pyridin-3-yl)[1,3]thiazolo[4,5-b]pyridine] | – | – | 2.5 | 2.46 | 90 | –
Clc1cccc(Nc2cnc3nc(-c4cccnc4)sc3c2)c1 [Example 25, N-(3-Chlorophenyl)-2-(pyridin-3-yl)[1,3]thiazolo[4,5-b]pyridin-6-amine] | – | – | 2.66 | 2.69 | 90 | –
c1cncc(-c2nc3ncc(-n4cccn4)cc3s2)c1 [Example 26, 6-(1H-Pyrazol-1-yl)-2-(pyridin-3-yl)[1,3]thiazolo[4,5-b]pyridine] | – | – | – | 1.62 | 90 | –
FC(F)(F)c1ccn(-c2cnc3nc(-c4cccnc4)sc3c2)n1 [Example 27] | – | – | – | 2.57 | – | –
FC(F)(F)c1cnn(-c2cnc3nc(-c4cccnc4)sc3c2)c1 [Example 28] | 2.48 | 2.53 | – | – | – | –
Cn1cnn(-c2cnc3nc(-c4cccnc4)sc3c2)c1=S [Example 29] | 1.00 | 1.07 | – | – | – | –
Cc1nn(-c2cnc3nc(-c4cccnc4)sc3c2)c(=O)n1C [Example 30, 4,5-Dimethyl-2-[2-(pyridin-3-yl)[1,3]thiazolo[4,5-b]pyridin-6-yl]-2,4-dihydro-3H-1,2,4-triazol-3-one] | – | – | 1.23 | 1.42 | 100 | –
Cc1nn(-c2cnc3nc(-c4cccnc4)sc3c2)c(=S)n1C [Example 31, 4,5-Dimethyl-2-[2-(pyridin-3-yl)[1,3]thiazolo[4,5-b]pyridin-6-yl]-2,4-dihydro-3H-1,2,4-triazole-3-thione] | – | – | 0.97 | 1.21 | 90 | –
CSCCNC(=O)c1cnc2nc(-c3cccnc3)sc2c1 [Example 52, N-[2-(Methylsulphanyl)ethyl]-2-(pyridin-3-yl)[1,3]thiazolo[4,5-b]pyridine-6-carboxamide] | – | – | 1.39 | – | – | –
CS(=O)(=O)CCNC(=O)c1cnc2nc(-c3cccnc3)sc2c1 [Example 54, N-[2-(Methylsulphonyl)ethyl]-2-(pyridin-3-yl)[1,3]thiazolo[4,5-b]pyridine-6-carboxamide] | – | – | 0.84 | – | – | –
O=C(Nc1cccc(SC(F)(F)F)c1)c1cnc2nc(-c3cncc(F)c3)sc2c1 [Example 57, 2-(5-Fluoropyridin-3-yl)-N-{3-[(trifluoromethyl)sulphanyl]phenyl}[1,3]thiazolo[4,5-b]pyridine-6-carboxamide] | – | – | 3.53 | – | – | –
O=C(Nc1cccc([S+]([O-])C(F)(F)F)c1)c1cnc2nc(-c3cncc(F)c3)sc2c1 (stereo not shown) [Example 58, 2-(5-Fluoropyridin-3-yl)-N-{3-[(trifluoromethyl)sulphinyl]phenyl}[1,3]thiazolo[4,5-b]pyridine-6-carboxamide] | – | – | 2.54 | – | – | –
Brc1cnc2nc(-c3cccnc3)sc2c1 [I-a-1, 6-bromo-2-(pyridin-3-yl)[1,3]thiazolo[4,5-b]pyridine] | – | – | – | 1.95 | – | –

Second part, led by results:

LogP[a] [1, 4] | logP[b] [1, 5] | chromatographic logP [1, 6] | chromatographic logP [1, 7] | SMILES | pest or weed control at 500 g/ha [2] [%] | further results
2.47 | 2.56 | – | – | c1ccc(-c2cnc3nc(-c4cccnc4)sc3c2)cc1 [Example 1] | – | –
– | – | 2.76 | 2.8 | Cc1ccccc1-c1cnc2nc(-c3cccnc3)sc2c1 [Example 2, 6-(2-Methylphenyl)-2-(pyridin-3-yl)[1,3]thiazolo[4,5-b]pyridine] | 100 | –
2.91 | 2.95 | – | – | Cc1cccc(-c2cnc3nc(-c4cccnc4)sc3c2)c1 [Example 3] | – | –
2.91 | 2.96 | – | – | Cc1ccc(-c2cnc3nc(-c4cccnc4)sc3c2)cc1 [Example 4] | – | efficacy [2]: 100%
2.51 | 2.54 | – | – | Fc1ccccc1-c1cnc2nc(-c3cccnc3)sc2c1 [Example 5] | – | –
2.77 | 2.78 | – | – | Clc1ccccc1-c1cnc2nc(-c3cccnc3)sc2c1 [Example 6] | – | efficacy [2]: 100%
– | – | 2.98 | 3.01 | Clc1cccc(-c2cnc3nc(-c4cccnc4)sc3c2)c1 [Example 7, 6-(3-Chlorophenyl)-2-(pyridin-3-yl)[1,3]thiazolo[4,5-b]pyridine] | 100 | –
2.98 | 3.03 | – | – | Clc1ccc(-c2cnc3nc(-c4cccnc4)sc3c2)cc1 [Example 8] | – | –
– | 2.96 | – | – | CSc1cccc(-c2cnc3nc(-c4cccnc4)sc3c2)c1 [Example 9] | – | efficacy [2]: 100%
– | 3.36 | – | – | CCSc1cccc(-c2cnc3nc(-c4cccnc4)sc3c2)c1 [Example 10] | – | –
– | – | 3.12 | 3.13 | CCSc1ccccc1-c1cnc2nc(-c3cccnc3)sc2c1 [Example 14, 6-[2-(Ethylsulphanyl)phenyl]-2-(pyridin-3-yl)[1,3]thiazolo[4,5-b]pyridine] | – | –
– | – | 1.58 | 1.59 | CC[S+]([O-])c1ccccc1-c1cnc2nc(-c3cccnc3)sc2c1 (stereo not shown) [Example 15, 6-[2-(Ethylsulphinyl)phenyl]-2-(pyridin-3-yl)[1,3]thiazolo[4,5-b]pyridine] | – | –
2.25 | 2.27 | – | – | c1ccc(Nc2cnc3nc(-c4cccnc4)sc3c2)cc1 [Example 24] | – | –
